Measured values taken from patent US8735414B2 (priority 2009, dated 2014).

Each compound was assayed on bicistronic HCV replicon (replicon RNA, GenBank Accession No. AJ242654) (assay: HCV Replicon Assay). Details: Hepatitis C virus, 72 h, read-out: Replicon IC50.
Type: cell-based

Cc1cc2c(cc1F)c(C#N)c(-c1ncc(S(=O)(=O)N[C@@H](C)C(F)(F)F)cn1)n2C1CCCCC1 [compound 679, 2-(3-cyano-1-cyclohexyl-5-fluoro-6-methyl-1H-indol-2-yl)-N-[(2S)-1,1,1-trifluoropropan-2-yl]pyrimidine-5-sulfonamide] and C[C@@H](NS(=O)(=O)c1ccc(-c2c(C#N)c3ccc(Cl)cc3n2C2CCCC2)nc1)C(F)(F)F [compound 223, 6-(6-chloro-3-cyano-1-cyclopentyl-1H-indol-2-yl)-N-[(2R)-1,1,1-trifluoropropan-2-yl]pyridine-3-sulfonamide] cannot be ordered by IC50: < 500 nM for the first, < 500 nM for the second.

CCC(NS(=O)(=O)c1ccc(-c2c(C#N)c3cc(F)c(OC(F)F)cc3n2C2CCC2)nc1)C(F)(F)F (stereo not shown) [compound 790, 6-[3-cyano-1-cyclobutyl-6-(difluoromethoxy)-5-fluoro-1H-indol-2-yl]-N-(1,1,1-trifluorobutan-2-yl)pyridine-3-sulfonamide] and C[C@H](NS(=O)(=O)c1ccc(-c2c(C#N)c3cc(F)c(OC(F)F)cc3n2C2CCC2)nc1)C(F)(F)F [compound 549, 6-[3-cyano-1-cyclobutyl-6-(difluoromethoxy)-5-fluoro-1H-indol-2-yl]-N-[(2S)-1,1,1-trifluoropropan-2-yl]pyridine-3-sulfonamide] cannot be ordered by IC50: < 500 nM for the first, < 500 nM for the second.

C[C@H](NS(=O)(=O)c1ccc(-c2c(C#N)c3ccc(CC(F)F)cc3n2C2CCCC2)nc1)C1CC1 [compound 594, 6-[3-cyano-1-cyclopentyl-6-(2,2-difluoroethyl)-1H-indol-2-yl]-N-[(1S)-1-cyclopropylethyl]pyridine-3-sulfonamide] and C[C@H](NS(=O)(=O)c1ccc(-c2c(C#N)c3cc(Cl)ccc3n2C2CCCC2)nc1)C1CC1 [compound 118, 6-(5-chloro-3-cyano-1-cyclopentyl-1H-indol-2-yl)-N-[(1S)-1-cyclopropylethyl]pyridine-3-sulfonamide] cannot be ordered by IC50: < 500 nM for the first, < 500 nM for the second.

Cc1ccnc(-n2c(-c3ccc(S(=O)(=O)N[C@@H](C)C(F)(F)F)cn3)c(C#N)c3cc(F)c(C)cc32)n1 [compound 873, 6-[3-cyano-5-fluoro-6-methyl-1-(4-methylpyrimidin-2-yl)-1H-indol-2-yl]-N-[(2S)-1,1,1-trifluoropropan-2-yl]pyridine-3-sulfonamide] and Cc1cc2c(cc1F)c(C#N)c(-c1ccc(S(=O)(=O)N[C@@H](C)C(F)(F)F)cn1)n2-c1ncccn1 [compound 634, 6-[3-cyano-5-fluoro-6-methyl-1-(pyrimidin-2-yl)-1H-indol-2-yl]-N-[(2S)-1,1,1-trifluoropropan-2-yl]pyridine-3-sulfonamide] cannot be ordered by IC50: < 500 nM for the first, < 500 nM for the second.

First: CC(C)NS(=O)(=O)c1ccc(-c2c(C#N)c3ccc(C4CC4)cc3n2C2CCC2)cn1 [compound 27, 5-(3-cyano-1-cyclobutyl-6-cyclopropyl-1H-indol-2-yl)-N-(propan-2-yl)pyridine-2-sulfonamide]
Second: CC(C)NS(=O)(=O)c1ccc(-c2c(C#N)c3ccc(OC(F)(F)F)cc3n2C2CCC2)cn1 [compound 26, 5-[3-cyano-1-cyclobutyl-6-(trifluoromethoxy)-1H-indol-2-yl]-N-(propan-2-yl)pyridine-2-sulfonamide]
The IC50 of the first is lower: < 500 nM for the first, 500 to 2000 nM for the second. The first is the more potent here.

COC(=O)c1cnc(-n2c(-c3ccc(S(=O)(=O)N[C@@H](C)C(F)(F)F)cn3)c(C#N)c3cc(F)c(C)cc32)s1 [compound 985, methyl 2-[3-cyano-5-fluoro-6-methyl-2-(5-{[(2S)-1,1,1-trifluoropropan-2-yl]sulfamoyl}pyridin-2-yl)-1H-indol-1-yl]-1,3-thiazole-5-carboxylate] and CCc1cc2c(cc1F)c(C#N)c(-c1ccc(S(=O)(=O)N[C@@H](C)C(F)(F)F)cn1)n2-c1ccc(C)cc1 [compound 1004, 6-[3-cyano-6-ethyl-5-fluoro-1-(4-methylphenyl)-1H-indol-2-yl]-N-[(2S)-1,1,1-trifluoropropan-2-yl]pyridine-3-sulfonamide] cannot be ordered by IC50: < 500 nM for the first, < 500 nM for the second.

Cc1ccc2c(C#N)c(-c3ccc(S(=O)(=O)N[C@H](C)C(F)(F)F)cn3)n(-c3ccccn3)c2c1 [compound 671, 6-[3-cyano-6-methyl-1-(pyridin-2-yl)-1H-indol-2-yl]-N-[(2R)-1,1,1-trifluoropropan-2-yl]pyridine-3-sulfonamide] and C[C@H](NS(=O)(=O)c1ccc(-c2c(C#N)c3ccc(C4CC4)cc3n2-c2ncccn2)nc1)C(F)(F)F [compound 650, 6-[3-cyano-6-cyclopropyl-1-(pyrimidin-2-yl)-1H-indol-2-yl]-N-[(2S)-1,1,1-trifluoropropan-2-yl]pyridine-3-sulfonamide] cannot be ordered by IC50: < 500 nM for the first, < 500 nM for the second.

First: Cc1cc2c(cc1F)cc(-c1ccc(S(=O)(=O)N[C@@H](C)C(F)(F)F)cn1)n2-c1cscn1 [compound 957, 6-[5-fluoro-6-methyl-1-(1,3-thiazol-4-yl)-1H-indol-2-yl]-N-[(2S)-1,1,1-trifluoropropan-2-yl]pyridine-3-sulfonamide]
Second: Cc1cc2c(cc1F)cc(-c1ccc(S(=O)(=O)N[C@@H](C)C(F)(F)F)cn1)n2-c1ncco1 [compound 1059, 6-[5-fluoro-6-methyl-1-(1,3-oxazol-2-yl)-1H-indol-2-yl]-N-[(2S)-1,1,1-trifluoropropan-2-yl]pyridine-3-sulfonamide]
The IC50 of the first is higher: 500 to 2000 nM for the first, < 500 nM for the second.

N#Cc1c(-c2ncc(S(=O)(=O)NC(CF)CF)cn2)n(C2CCC2)c2ccc(C(F)F)cc12 [compound 379, 2-[3-cyano-1-cyclobutyl-5-(difluoromethyl)-1H-indol-2-yl]-N-(1,3-difluoropropan-2-yl)pyrimidine-5-sulfonamide] and Cc1c(F)cc2c(C#N)c(-c3ncc(S(=O)(=O)NC(CF)CF)cn3)n(C3CCC3)c2c1F [compound 668, 2-(3-cyano-1-cyclobutyl-5,7-difluoro-6-methyl-1H-indol-2-yl)-N-(1,3-difluoropropan-2-yl)pyrimidine-5-sulfonamide] cannot be ordered by IC50: < 500 nM for the first, < 500 nM for the second.

Cc1cc2c(cc1F)c(C#N)c(-c1ccc(S(=O)(=O)NC(C)(C)C(F)(F)F)cn1)n2C1CCOCC1 [compound 750, 6-[3-cyano-5-fluoro-6-methyl-1-(tetrahydro-2H-pyran-4-yl)-1H-indol-2-yl]-N-(1,1,1-trifluoro-2-methylpropan-2-yl)pyridine-3-sulfonamide] and Cc1cc2c(cc1F)c(C#N)c(-c1ccc(S(=O)(=O)NC(C)(C)C)cn1)n2C1CCOCC1 [compound 752, N-tert-butyl-6-[3-cyano-5-fluoro-6-methyl-1-(tetrahydro-2H-pyran-4-yl)-1H-indol-2-yl]pyridine-3-sulfonamide] cannot be ordered by IC50: < 500 nM for the first, < 500 nM for the second.

Compared with CC(C)NS(=O)(=O)c1cnc(-c2c(C#N)c3ccc(CF)cc3n2C2CCC2)nc1 [compound 315, 2-[3-cyano-1-cyclobutyl-6-(fluoromethyl)-1H-indol-2-yl]-N-(propan-2-yl)pyrimidine-5-sulfonamide], CC(C)NS(=O)(=O)c1cnc(-c2c(C#N)c3ccc(Cl)cc3n2C(C)C)nc1 [compound 156, 2-[6-chloro-3-cyano-1-(propan-2-yl)-1H-indol-2-yl]-N-(propan-2-yl)pyrimidine-5-sulfonamide] is higher in IC50: < 500 nM for the first, 500 to 2000 nM for the second. The first is the more potent here.

Compared with CCc1cc2c(cc1F)c(C(N)=O)c(-c1ccc(S(=O)(=O)N[C@@H](C)C(F)(F)F)cn1)n2-c1cccc(C(F)(F)F)c1 [compound 1026, 6-ethyl-5-fluoro-1-[3-(trifluoromethyl)phenyl]-2-(5-{[(2S)-1,1,1-trifluoropropan-2-yl]sulfamoyl}pyridin-2-yl)-1H-indole-3-carboxamide], COC(=O)c1c(-c2ccc(S(=O)(=O)N[C@@H](C)C(F)(F)F)cn2)n(C2CCC2)c2cc(C)c(F)cc12 [compound 771, methyl 1-cyclobutyl-5-fluoro-6-methyl-2-(5-{[(2S)-1,1,1-trifluoropropan-2-yl]sulfamoyl}pyridin-2-yl)-1H-indole-3-carboxylate] is lower in IC50: 500 to 2000 nM for the first, < 500 nM for the second. The second is the more potent here.

C[C@H](NS(=O)(=O)c1ccc(-c2c(C#N)c3cc(F)ccc3n2C2CCC2)nc1)C(F)(F)F [compound 434, 6-(3-cyano-1-cyclobutyl-5-fluoro-1H-indol-2-yl)-N-[(2S)-1,1,1-trifluoropropan-2-yl]pyridine-3-sulfonamide] and C[C@@H](NS(=O)(=O)c1ccc(-c2c(C#N)c3cc(Cl)ccc3n2C2CCCC2)nc1)C(F)(F)F [compound 224, 6-(5-chloro-3-cyano-1-cyclopentyl-1H-indol-2-yl)-N-[(2R)-1,1,1-trifluoropropan-2-yl]pyridine-3-sulfonamide] cannot be ordered by IC50: < 500 nM for the first, < 500 nM for the second.

C=Cc1cc2c(cc1F)c(C#N)c(-c1ccc(S(=O)(=O)N[C@@H](C)C(F)(F)F)cn1)n2-c1ncccn1 [compound 908, 6-[3-cyano-6-ethenyl-5-fluoro-1-(pyrimidin-2-yl)-1H-indol-2-yl]-N-[(2S)-1,1,1-trifluoropropan-2-yl]pyridine-3-sulfonamide] and Cc1cc2c(cc1F)c(C#N)c(-c1ccc(S(=O)(=O)NC(C)(C)C)cn1)n2-c1ncccn1 [compound 824, N-tert-butyl-6-[3-cyano-5-fluoro-6-methyl-1-(pyrimidin-2-yl)-1H-indol-2-yl]pyridine-3-sulfonamide] cannot be ordered by IC50: < 500 nM for the first, < 500 nM for the second.

Compared with C[C@H](N(C(F)F)S(=O)(=O)c1ccc(-c2c(C#N)c3cc(F)c(OC(F)F)cc3n2C2CCC2)nc1)C(F)(F)F [compound 712, 6-[3-cyano-1-cyclobutyl-6-(difluoromethoxy)-5-fluoro-1H-indol-2-yl]-N-(difluoromethyl)-N-[(2S)-1,1,1-trifluoropropan-2-yl]pyridine-3-sulfonamide], C[C@H](NS(=O)(=O)c1ccc(-c2c(C#N)c3c(F)cc(OC(F)F)cc3n2CC2CC2)nc1)C(F)(F)F [compound 773, 6-[3-cyano-1-(cyclopropylmethyl)-6-(difluoromethoxy)-4-fluoro-1H-indol-2-yl]-N-[(2S)-1,1,1-trifluoropropan-2-yl]pyridine-3-sulfonamide] is lower in IC50: 2000 to 5000 nM for the first, 500 to 2000 nM for the second.

For Cc1nc(NS(=O)(=O)C(C)(C)C)ccc1-c1c(C(=O)O)c2cc(F)c(OC(F)F)cc2n1C(C)C [compound 1093, 2-{6-[(tert-butylsulfonyl)amino]-2-methylpyridin-3-yl}-6-(difluoromethoxy)-5-fluoro-1-(propan-2-yl)-1H-indole-3-carboxylic acid], the IC50 was 500 to 2000 nM.
